Values quoted from earlier work, collected in patent US9198974B2, “Decorated macromolecular scaffolds” (Mintaka Foundation for Medical Research, priority 2011, dated 2015).

Conditions: for pKa, m-: meta-substituted aniline; for pKa, m- / pKa, o-: listed as gives the substituent; for pKa, o-: ortho-substituted aniline

## Nc1cccc(Br)c1 [m-Br—]
  pKa, m-: 3.51

## CCOC(=O)c1cccc(N)c1 [m-C2H5O2C—]
  pKa, m-: 2.38

## CCOc1cccc(N)c1 [m-C2H5O—]
  pKa, m-: 4.17

## Nc1cccc(-c2ccccc2)c1 [m-C6H5—]
  pKa, m-: 4.18

## COC(=O)c1cccc(N)c1 [m-CH3O2C—]
  pKa, m-: 3.56

## COc1cccc(N)c1 [m-CH3O—]
  pKa, m-: 4.20

## CSc1cccc(N)c1 [m-CH3S—]
  pKa, m-: 4.40

## Cc1cccc(N)c1 [m-CH3—]
  pKa, m-: 4.67

## Nc1cccc(Cl)c1 [m-Cl—]
  pKa, m-: 3.32

## Nc1cccc(C(F)(F)F)c1 [m-F3C—]
  pKa, m-: 2.57

## Nc1cccc(F)c1 [m-F—]
  pKa, m-: 3.38

## Nc1cccc(N)c1 [m-H2N—]
  pKa, m-: 4.88

## Nc1cccc(C(=O)O)c1 [m-HO2C—]
  pKa, m-: 3.05

## Nc1cccc(O)c1 [m-HO—]
  pKa, m-: 4.17

## Nc1cccc([N+](=O)[O-])c1 [m-O2N—]
  pKa, m-: 2.45

## Nc1cccc(S(=O)(=O)O)c1 [m-O3S—]
  pKa, m-: 3.32

## CC(C)(C)c1ccccc1N [o-(CH3)3C—]
  pKa, o-: 3.78

## Nc1ccccc1Br [o-Br—]
  pKa, o-: 2.6

## CCOC(=O)c1ccccc1N [o-C2H5O2C—]
  pKa, o-: 2.10

## CCOc1ccccc1N [o-C2H5O—]
  pKa, o-: 4.47

## Nc1ccccc1-c1ccccc1 [o-C6H5—]
  pKa, o-: 3.78

## COC(=O)c1ccccc1N [o-CH3O2C—]
  pKa, o-: 2.16

## COc1ccccc1N [o-CH3O—]
  pKa, o-: 4.49

## CSc1ccccc1N [o-CH3S—]
  pKa, o-: 4.05

## Cc1ccccc1N [o-CH3—]
  pKa, o-: 4.38

## Nc1ccccc1Cl [o-Cl—]
  pKa, o-: 2.62

## Nc1ccccc1C(F)(F)F [o-F3C—]
  pKa, o-: 3.49

## Nc1ccccc1F [o-F—]
  pKa, o-: 2.96

## Nc1ccccc1N [o-H2N—]
  pKa, o-: 4.47

## Nc1ccccc1C(=O)O [o-HO2C—]
  pKa, o-: 2.04

## Nc1ccccc1O [o-HO—]
  pKa, o-: 4.72

## Nc1ccccc1[N+](=O)[O-] [o-O2N—]
  pKa, o-: −0.28

## Nc1ccccc1S(=O)(=O)O [o-O3S—]
  pKa, o-: 3.80

## CCOc1ccc(N)cc1 [p-C2H5O—, 4-ethoxy aniline]
Preferred aniline catalysts
  pKa: 5.2
